Source: ChEMBL document CHEMBL6096722, “A Hypoxia-Activated BODIPY-Azo Anticancer Prodrug for Bimodal Chemo-Photodynamic Therapy” (J Med Chem, 2025)
Active and inactive are the calls of the source. The rule behind the calls is not given here.

How the values were obtained:
[1] = Photostability of compound in PBS buffer at pH 7.4 at 10 uM under 20 W/cm2 white LED light irradiation measured upto 10 mins by absorption based assay; type: physicochemical; settings: pH 7.4, 10 min
[2] = Photostability of compound in PBS buffer at pH 7.4 at 10 uM under 20 W/cm2 white LED light irradiation measured for 60 mins by absorption based assay; type: physicochemical; settings: pH 7.4, 1 h
[3] = Induction of singlet oxygen quantum yield under irradiation with 590 nm LED light by DPBF based assay; type: functional
[4] = tested on: A-375; assay: Cytotoxicity against human A-375 cells assessed as cell viability at 0.25 to 16 uM incubated for 4 hrs by CCK-8 assay; type: functional; settings: dose 0.25-16 µM
[5] = tested on: A-375; assay: Cytotoxicity against human A-375 cells assessed as cell viability at 100 uM incubated for 4 hrs by CCK-8 assay; type: functional; settings: read-out: Activity
[6] = Cytotoxicity against human HUVEC cells assessed as cell viability at upto 100 uM incubated for 4 hrs by CCK-8 assay; type: toxicity, cell-based; settings: read-out: Activity
[7] = tested on: A-375; assay: Cytotoxicity against human A-375 cells assessed as cell viability at 100 uM preincubated with compound for 4 hrs followed by light irradiation for 30 mins and measured after 24 hrs by CCK-8 assay; type: functional, cell-based; settings: time 28.5 hrs
[8] = tested on: A-375; assay: Cytotoxicity against human A-375 cells assessed as cell viability at >1 uM preincubated with compound for 4 hrs followed by light irradiation for 30 mins and measured after 24 hrs by CCK-8 assay; type: functional, cell-based; settings: time 28.5 hrs
[9] = tested on: A-375; assay: Cytotoxicity against human A-375 cells assessed as cell viability at upto 100 uM preincubated with compound for 4 hrs followed by light irradiation for 30 mins and measured after 24 hrs under hypoxic condition by CCK-8 assay; type: functional, cell-based; settings: time 28.5 hrs
[10] = tested on: A-375; assay: Cytotoxicity against human A-375 cells assessed as cell viability at upto 100 uM incubated for 4 hrs under hypoxic condition by CCK-8 assay; type: functional, cell-based
[11] = tested on: A-375; assay: Antitumor activity against human A-375 cells assessed as cell viability incubated for 4 hrs under normoxic condition by MTT assay; type: functional, cell-based; settings: A-375, 4 h
[12] = tested on: A-375; assay: Antitumor activity against human A-375 cells assessed as cell viability incubated for 4 hrs under hypoxia condition by MTT assay; type: functional, cell-based; settings: A-375, 4 h
[13] = tested on: A-375; assay: Antitumor activity against human A-375 cells assessed as cell viability preincubated with compound for 4 hrs followed by light irradiation for 30 mins and measured after 24 hrs under normoxic condition by MTT assay; type: functional, cell-based; settings: A-375, light or radiation study
[14] = tested on: A-375; assay: Antitumor activity against human A-375 cells assessed as cell viability preincubated with compound for 4 hrs followed by light irradiation for 30 mins and measured after 24 hrs under hypoxic condition by MTT assay; type: functional, cell-based; settings: A-375, light or radiation study
[15] = Selectivity index, ratio of IC50 for antitumor activity against human A-375 cells assessed as cell viability incubated for 4 hrs under hypoxic condition by MTT assay to IC50 for antitumor activity against human A-375 cells assessed as cell viability incubated for 4 hrs under normoxic condition by MTT assay; type: functional
[16] = tested on: A-375; assay: Induction of ROS generation in human A-375 cells assessed as increase in green fluorescence at 10 uM preincubated with compound for 24 hrs followed by light irradiation for 30 mins and measured after 30 mins by DCFH-DA staining based fluorescence microscopic analysis; type: functional, cell-based; settings: time 25.0 hrs
[17] = tested on: A-375; assay: Induction of ROS generation in human A-375 cells assessed as increase fluorescence intensity at 10 uM incubated with compound for 24 hrs by DCFH-DA staining based analysis; type: functional, cell-based
[18] = Retention time of the compound by HPLC-MASS analysis; type: physicochemical
[19] = tested on: A-375; assay: Anticancer activity against human A-375 cells measured at 12 to 30 hrs under hypoxic condition; type: functional, cell-based; settings: time 12-30 hrs
[20] = tested on: A-375; assay: Anticancer activity against human A-375 cells measured at 24 hrs under hypoxic condition; type: functional, cell-based
[21] = tested on: A-375; assay: Antitumor activity against human A-375 cells xenografted in male BALB/c mouse assessed as tumor growth inhibition at 2.9 mg/ml, ip measured for 60 mins with light irradiation; type: functional; settings: A-375, light or radiation study, 1 h, read-out: TGI
[22] = Toxicity in BALB/c mouse assessed change in body weight at 2.9 mg/ml, ip measured for 60 mins with light irradiation; type: organism-based; settings: in vivo, 1 h
[23] = Toxicity in BALB/c mouse assessed at 2.9 mg/ml, ip assessed as morphological changes in tumor measured for 60 mins with light irradiation by H and E staining based analysis; type: organism-based; settings: in vivo, 1 h
[24] = tested on: A-375; assay: Induction of apoptosis in human A-375 cells assessed as viable cells at 2 uM incubated for 24 hrs under hypoxia condition by Annexin V-FITC staining based flow cytometry analysis; type: functional; settings: read-out: Activity
[25] = tested on: A-375; assay: Induction of apoptosis in human A-375 cells assessed as early apoptotic cells at 2 uM incubated for 24 hrs under hypoxia condition by Annexin V-FITC staining based flow cytometry analysis; type: functional
[26] = tested on: A-375; assay: Induction of apoptosis in human A-375 cells assessed as late apoptotic cells at 2 uM incubated for 24 hrs under hypoxia condition by Annexin V-FITC staining based flow cytometry analysis; type: functional
[27] = tested on: A-375; assay: Induction of apoptosis in human A-375 cells assessed as necrotic cells at 2 uM incubated for 24 hrs under hypoxia condition by Annexin V-FITC staining based flow cytometry analysis; type: functional
[28] = tested on: A-375; assay: Induction of apoptosis in human A-375 cells assessed as viable cells at 4 uM incubated for 24 hrs under hypoxia condition by Annexin V-FITC staining based flow cytometry analysis; type: functional; settings: read-out: Activity
[29] = tested on: A-375; assay: Induction of apoptosis in human A-375 cells assessed as early apoptotic cells at 4 uM incubated for 24 hrs under hypoxia condition by Annexin V-FITC staining based flow cytometry analysis; type: functional
[30] = tested on: A-375; assay: Induction of apoptosis in human A-375 cells assessed as late apoptotic cells at 4 uM incubated for 24 hrs under hypoxia condition by Annexin V-FITC staining based flow cytometry analysis; type: functional
[31] = tested on: A-375; assay: Induction of apoptosis in human A-375 cells assessed as necrotic cells at 4 uM incubated for 24 hrs under hypoxia condition by Annexin V-FITC staining based flow cytometry analysis; type: functional
[32] = tested on: A-375; assay: Induction of apoptosis in human A-375 cells assessed as viable cells at 6 uM incubated for 24 hrs under hypoxia condition by Annexin V-FITC staining based flow cytometry analysis; type: functional; settings: read-out: Activity
[33] = tested on: A-375; assay: Induction of apoptosis in human A-375 cells assessed as early apoptotic cells at 6 uM incubated for 24 hrs under hypoxia condition by Annexin V-FITC staining based flow cytometry analysis; type: functional
[34] = tested on: A-375; assay: Induction of apoptosis in human A-375 cells assessed as late apoptotic cells at 6 uM incubated for 24 hrs under hypoxia condition by Annexin V-FITC staining based flow cytometry analysis; type: functional
[35] = tested on: A-375; assay: Induction of apoptosis in human A-375 cells assessed as necrotic cells at 6 uM incubated for 24 hrs under hypoxia condition by Annexin V-FITC staining based flow cytometry analysis; type: functional
[36] = tested on: A-375; assay: Induction of apoptosis in human A-375 cells assessed as viable cells at 2 uM incubated for 24 hrs under normoxia condition by Annexin V-FITC staining based flow cytometry analysis; type: functional; settings: read-out: Activity
[37] = tested on: A-375; assay: Induction of apoptosis in human A-375 cells assessed as early apoptotic cells at 2 uM incubated for 24 hrs under normoxia condition by Annexin V-FITC staining based flow cytometry analysis; type: functional
[38] = tested on: A-375; assay: Induction of apoptosis in human A-375 cells assessed as late apoptotic cells at 2 uM incubated for 24 hrs under normoxia condition by Annexin V-FITC staining based flow cytometry analysis; type: functional
[39] = tested on: A-375; assay: Induction of apoptosis in human A-375 cells assessed as necrotic cells at 2 uM incubated for 24 hrs under normoxia condition by Annexin V-FITC staining based flow cytometry analysis; type: functional
[40] = tested on: A-375; assay: Induction of apoptosis in human A-375 cells assessed as viable cells at 4 uM incubated for 24 hrs under normoxia condition by Annexin V-FITC staining based flow cytometry analysis; type: functional; settings: read-out: Activity
[41] = tested on: A-375; assay: Induction of apoptosis in human A-375 cells assessed as early apoptotic cells at 4 uM incubated for 24 hrs under normoxia condition by Annexin V-FITC staining based flow cytometry analysis; type: functional
[42] = tested on: A-375; assay: Induction of apoptosis in human A-375 cells assessed as late apoptotic cells at 4 uM incubated for 24 hrs under normoxia condition by Annexin V-FITC staining based flow cytometry analysis; type: functional
[43] = tested on: A-375; assay: Induction of apoptosis in human A-375 cells assessed as necrotic cells at 4 uM incubated for 24 hrs under normoxia condition by Annexin V-FITC staining based flow cytometry analysis; type: functional
[44] = tested on: A-375; assay: Induction of apoptosis in human A-375 cells assessed as viable cells at 6 uM incubated for 24 hrs under normoxia condition by Annexin V-FITC staining based flow cytometry analysis; type: functional; settings: read-out: Activity
[45] = tested on: A-375; assay: Induction of apoptosis in human A-375 cells assessed as early apoptotic cells at 6 uM incubated for 24 hrs under normoxia condition by Annexin V-FITC staining based flow cytometry analysis; type: functional
[46] = tested on: A-375; assay: Induction of apoptosis in human A-375 cells assessed as late apoptotic cells at 6 uM incubated for 24 hrs under normoxia condition by Annexin V-FITC staining based flow cytometry analysis; type: functional
[47] = tested on: A-375; assay: Induction of apoptosis in human A-375 cells assessed as necrotic cells at 6 uM incubated for 24 hrs under normoxia condition by Annexin V-FITC staining based flow cytometry analysis; type: functional

SMILES: CC1=C(Br)C(C)=[N+]2C1=C(c1ccccc1)c1c(C)c(Br)c(/C=C/c3ccc(O)cc3)n1[B-]2(F)F
- Stability [1]: Stable
- Stability [2]: Stable
- Activity [3]: Active
- Activity [4]: >80%
- viability at 100 µM [5]: ~50%
- viability at 4 h, 100 µM [6]: > 90%
- Activity [7]: Active
- Activity [8]: Active
- Activity [9]: Active
- Activity [10]: Active
- IC50 [11]: > 100 µM
- IC50 [12]: > 16 µM
- IC50 [13]: 6.99 µM
- IC50 [14]: 0.77 µM
- Ratio IC50 [15]: 309.63
- Activity [16]: Active
- Activity [17]: Active
- Retention_time [18]: 3.5 min
- Activity [19]: Active
- Activity [20]: Active
- inhibition in vivo at 2900 µg/mL [21]: 71%
- Activity [22]: Non-toxic
- Activity [23]: Non-toxic

SMILES: CC1=C(Br)C(C)=[N+]2C1=C(c1ccccc1)c1c(C)c(Br)c(/C=C/c3ccc(OCc4ccc(/N=N/c5ccc(N(CCCl)CCCl)cc5)cc4)cc3)n1[B-]2(F)F
- Stability [1]: Stable
- Stability [2]: Stable
- Activity [3]: Active
- Activity [4]: >80%
- viability at 100 µM [5]: ~50%
- viability at 4 h, 100 µM [6]: > 90%
- Activity [7]: Active
- Activity [9]: Active
- Activity [10]: Active
- IC50 [11]: > 100 µM
- IC50 [12]: > 16 µM
- IC50 [13]: 1.35 µM
- IC50 [14]: 4.18 µM
- Ratio IC50 [15]: 11.02
- Activity [16]: Active
- Activity [17]: Active
- Retention_time [18]: 1.422 min
- viability at 2 µM [24]: 96.3%
- Activity [25]: 0.809%
- Activity [26]: 1.663%
- Activity [27]: 13.664%
- viability at 4 µM [28]: 94.8%
- Activity [29]: 0.147%
- Activity [30]: 3.098%
- Activity [31]: 0.975%
- viability at 6 µM [32]: 93.6%
- Activity [33]: 1.832%
- Activity [34]: 3.285%
- Activity [35]: 1.274%
- viability at 2 µM [36]: 92.7%
- Activity [37]: 4.467%
- Activity [38]: 2.806%
- Activity [39]: 0.058%
- viability at 4 µM [40]: 85.5%
- Activity [41]: 7.534%
- Activity [42]: 6.769%
- Activity [43]: 0.185%
- viability at 6 µM [44]: 71.7%
- Activity [45]: 12.663%
- Activity [46]: 15.404%
- Activity [47]: 0.247%
- inhibition in vivo at 2900 µg/mL [21]: 92%
